Source: patent publication US11254695B2, “Soluble C5aR antagonists” (CHEMOCENTRYX, INC., priority 2016, dated 2022)
≈ marks a conversion by molar mass, not a printed value. Where a name gives a salt, the structure may show the parent alone.

Experiments:
Assay type in all cases: physicochemical
[1] = physchem; settings: 25 °C, pH 7, aqueous buffer, thermodynamic from solid
Protocol: Saturated solutions of compound in pH 7 buffers were left overnight at room temperature (25° C.) before they were centrifuged. The supernatants were taken out and quantified. Solubility: 0.053 μg/mL.

[2] = Solubility of saturated solutions in D.I. water, quantified by LC-MS; settings: thermodynamic from solid, saturated solution in D.I. water, shaken 3 hours at room temperature, average of four replicates
Protocol: Saturated solutions of compound were freshly prepared by adding 1 mL D.I. water into 0.8 mg compound powder. After shaking at room temperature for 3 hours, the samples were centrifuged under 14000 rpm for 15 minutes twice. The supernatants were carefully taken out and quantified by LC-MS. Solubility: 1.2±0.2 μg/mL (average of four replicates).

[3] = Solubility in Milli-Q water, examined with naked eye; settings: thermodynamic from solid; arbitrary amount in 1 mL Milli-Q water, room temperature, clear solution by naked eye; not the maximum solubility; read-out: Solubility in H2O
Description: Experiments with no visible particles by naked eye were considered as clear solutions. It is important to note that the reported solubility information is not the maximum solubility of the compounds in water.

SMILES: Cc1ccc(NC(=O)[C@H]2CCCN(C(=O)c3c(C)cccc3F)[C@H]2c2ccc(NC3CCCC3)cc2)cc1C(F)(F)F
- solubility [1]: 0.053 µg/mL (≈ 9.11e-05 mM)

SMILES: Cc1cccc(F)c1C(=O)N1CCC[C@H](C(=O)Nc2ccc(CO)c(C(F)(F)F)c2)[C@@H]1c1ccc(NC2CCCC2)cc1
- solubility at 3 h [2]: 1.2 ± 0.2 µg/mL (≈ 0.00201 mM)

SMILES: Cc1cccc(F)c1C(=O)N1CCC[C@H](C(=O)Nc2ccc(COC(=O)C(N)C(C)C)c(C(F)(F)F)c2)[C@@H]1c1ccc(NC2CCCC2)cc1 (stereo in doubt) [Example 17, [4-[[(2R,3S)-2-[4-(cyclopentylamino)phenyl]-1-(2-fluoro-6-methyl-benzoyl)piperidine-3-carbonyl]amino]-2-(trifluoromethyl)phenyl]methyl (2R)-2-amino-3-methyl-butanoate]
- solubility [3]: 4000 µg/mL (≈ 5.74 mM)

SMILES: Cc1ccc(NC(=O)[C@H]2CCCN(C(=O)c3c(C)cccc3F)[C@H]2c2ccc(N(C(=O)CN(C)C)C3CCCC3)cc2)cc1C(F)(F)F [Example 1, (2R,3S)-2-[4-[cyclopentyl-[2-(dimethylamino)acetyl]amino]phenyl]-1-(2-fluoro-6-methyl-benzoyl)-N-[4-methyl-3-(trifluoromethyl)phenyl]piperidine-3-carboxamide]
- solubility [3]: > 10000 µg/mL

SMILES: Cc1ccc(NC(=O)[C@H]2CCCN(C(=O)c3c(C)cccc3F)[C@H]2c2ccc(N(C(=O)CN)C3CCCC3)cc2)cc1C(F)(F)F [Example 2, (2R,3S)-2-[4-[(2-aminoacetyl)-cyclopentyl-amino]phenyl]-1-(2-fluoro-6-methyl-benzoyl)-N-[4-methyl-3-(trifluoromethyl)phenyl]piperidine-3-carboxamide]
- solubility [3]: > 5000 µg/mL

SMILES: Cc1ccc(NC(=O)[C@H]2CCCN(C(=O)c3c(C)cccc3F)[C@H]2c2ccc(N(C3CCCC3)P(=O)(O)N[C@@H](Cc3c[nH]cn3)C(=O)O)cc2)cc1C(F)(F)F [Example 3, 2-[[[N-cyclopentyl-4-[(2R,3S)-1-(2-fluoro-6-methyl-benzoyl)-3-[[4-methyl-3-(trifluoromethyl)phenyl]carbamoyl]-2-piperidyl]anilino]-hydroxy-phosphoryl]amino]-3-(1H-imidazol-4-yl)propanoic acid]
- solubility [3]: 5000 µg/mL (≈ 6.26 mM)

SMILES: Cc1ccc(NC(=O)[C@H]2CCCN(C(=O)c3c(C)cccc3F)[C@H]2c2ccc(N(C3CCCC3)P(=O)(O)OC(=O)C(C)C)cc2)cc1C(F)(F)F [Example 4, N-cyclopentyl-N-[4-[(2R,3S)-1-(2-fluoro-6-methyl-benzoyl)-3-[[4-methyl-3 (trifluoromethyl)phenyl]carbamoyl]-2-piperidyl]phenyl]-(2-methylpropanoyloxy)phosphonamidic acid]
- solubility [3]: 1000 µg/mL (≈ 1.37 mM)

SMILES: Cc1ccc(NC(=O)[C@H]2CCCN(C(=O)c3c(C)cccc3F)[C@H]2c2ccc(N(C(=O)CNC(=O)CN)C3CCCC3)cc2)cc1C(F)(F)F [Example 5, (2R,3S)-2-[4-[[2-[(2-aminoacetyl)amino]acetyl]-cyclopentyl-amino]phenyl]-1-(2-fluoro-6-methyl-benzoyl)-N-[4-methyl-3-(trifluoromethyl)phenyl]piperidine-3-carboxamide]
- solubility [3]: 10000 µg/mL (≈ 14.4 mM)

SMILES: Cc1ccc(NC(=O)[C@H]2CCCN(C(=O)c3c(C)cccc3F)[C@H]2c2ccc(N(C(=O)CNC(=O)[C@@H](N)CCCN)C3CCCC3)cc2)cc1C(F)(F)F [Example 6, (2R,3S)-2-[4-[cyclopentyl-[2-[[(2S)-2,5-diaminopentanoyl]amino]acetyl]amino]phenyl]-1-(2-fluoro-6-methyl-benzoyl)-N-[4-methyl-3-(trifluoromethyl)phenyl]piperidine-3-carboxamide dihydrochloride]
- solubility [3]: 5000 µg/mL

SMILES: Cc1ccc(NC(=O)[C@H]2CCCN(C(=O)c3c(C)cccc3F)[C@H]2c2ccc(N(C(=O)OCOC(=O)[C@@H](N)C(C)C)C3CCCC3)cc2)cc1C(F)(F)F [Example 7, [cyclopentyl-[4-[(2R,3S)-1-(2-fluoro-6-methyl-benzoyl)-3-[[4-methyl-3-(trifluoromethyl)phenyl]carbamoyl]-2-piperidyl]phenyl]carbamoyl]oxymethyl (2S)-2-amino-3-methyl-butanoate]
- solubility [3]: 1000 to 2000 µg/mL (≈ 1.32 to 2.65 mM)

SMILES: Cc1ccc(NC(=O)[C@H]2CCCN(C(=O)c3c(C)cccc3F)[C@H]2c2ccc(N(C(=O)OCc3ccc(OP(=O)(O)O)cc3)C3CCCC3)cc2)cc1C(F)(F)F [Example 8, (4-phosphonooxyphenyl)methyl N-cyclopentyl-N-[4-[(2R,3S)-1-(2-fluoro-6-methyl-benzoyl)-3-[[4-methyl-3-(trifluoromethyl)phenyl]carbamoyl]-2-piperidyl]phenyl]carbamate]
- solubility [3]: 1000 µg/mL (≈ 1.23 mM)

SMILES: Cc1ccc(NC(=O)[C@H]2CCCN(C(=O)c3c(C)cccc3F)[C@H]2c2ccc(N(C(=O)OCOP(=O)(O)O)C3CCCC3)cc2)cc1C(F)(F)F [Example 9, phosphonooxymethyl N-cyclopentyl-N-[4-[(2R,3S)-1-(2-fluoro-6-methyl-benzoyl)-3-[[4-methyl-3-(trifluoromethyl)phenyl]carbamoyl]-2-piperidyl]phenyl]carbamate]
- solubility [3]: > 10000 µg/mL

SMILES: Cc1ccc(NC(=O)[C@H]2CCCN(C(=O)c3c(C)cccc3F)[C@H]2c2ccc(N(C(=O)OCOC(=O)/C=C/C(=O)O)C3CCCC3)cc2)cc1C(F)(F)F [Example 10, (E)-4-[[cyclopentyl-[4-[(2R,3S)-1-(2-fluoro-6-methyl-benzoyl)-3-[[4-methyl-3-(trifluoromethyl)phenyl]carbamoyl]-2-piperidyl]phenyl]carbamoyl]oxymethoxy]-4-oxo-but-2-enoic acid]
- solubility [3]: 1000 µg/mL (≈ 1.33 mM)

SMILES: Cc1ccc(N(COP(=O)(O)O)C(=O)[C@H]2CCCN(C(=O)c3c(C)cccc3F)[C@H]2c2ccc(NC3CCCC3)cc2)cc1C(F)(F)F [Example 11, [N-[(2R,3S)-2-[4-(cyclopentylamino)phenyl]-1-(2-fluoro-6-methyl-benzoyl)piperidine-3-carbonyl]-4-methyl-3-(trifluoromethyl)anilino]methyl dihydrogen phosphate]
- solubility [3]: > 5000 µg/mL

SMILES: Cc1cccc(F)c1C(=O)N1CCC[C@H](C(=O)Nc2ccc(COC(=O)CNC(=O)CN)c(C(F)(F)F)c2)[C@@H]1c1ccc(NC2CCCC2)cc1 [Example 13]
- solubility [3]: 10000 µg/mL (≈ 14 mM)

SMILES: Cc1cccc(F)c1C(=O)N1CCC[C@H](C(=O)Nc2ccc(COC(=O)CNC(=O)[C@@H](N)C(C)C)c(C(F)(F)F)c2)[C@@H]1c1ccc(NC2CCCC2)cc1 [Example 14, [4-[[(2R,3S)-2-[4-(cyclopentylamino)phenyl]-1-(2-fluoro-6-methyl-benzoyl)piperidine-3-carbonyl]amino]-2-(trifluoromethyl)phenyl]methyl 2-[[(2S)-2-amino-3-methyl-butanoyl]amino]acetate]
- solubility [3]: 5000 µg/mL (≈ 6.63 mM)

SMILES: Cc1cccc(F)c1C(=O)N1CCC[C@H](C(=O)Nc2ccc(COC(=O)[C@@H](NC(=O)CN)C(C)C)c(C(F)(F)F)c2)[C@@H]1c1ccc(NC2CCCC2)cc1 [Example 15, [4-[[(2R,3S)-2-[4-(cyclopentylamino)phenyl]-1-(2-fluoro-6-methyl-benzoyl)piperidine-3-carbonyl]amino]-2-(trifluoromethyl)phenyl]methyl (2S)-2-[(2-aminoacetyl)amino]-3-methyl-butanoate]
- solubility [3]: 5000 µg/mL (≈ 6.63 mM)

SMILES: Cc1cccc(F)c1C(=O)N1CCC[C@H](C(=O)Nc2ccc(COC(=O)[C@@H](NC(=O)[C@@H](N)C(C)C)C(C)C)c(C(F)(F)F)c2)[C@@H]1c1ccc(NC2CCCC2)cc1 [Example 16, [4-[[(2R,3S)-2-[4-(cyclopentylamino)phenyl]-1-(2-fluoro-6-methyl-benzoyl)piperidine-3-carbonyl]amino]-2-(trifluoromethyl)phenyl]methyl (2S)-2-[[(2S)-2-amino-3-methyl-butanoyl]amino]-3-methyl-butanoate]
- solubility [3]: 5000 µg/mL (≈ 6.28 mM)

SMILES: Cc1cccc(F)c1C(=O)N1CCC[C@H](C(=O)Nc2ccc(COC(=O)[C@H](C)N)c(C(F)(F)F)c2)[C@@H]1c1ccc(NC2CCCC2)cc1 [Example 18, [4-[[(2R,3S)-2-[4-(cyclopentylamino)phenyl]-1-(2-fluoro-6-methyl-benzoyl)piperidine-3-carbonyl]amino]-2-(trifluoromethyl)phenyl]methyl (2S)-2-aminopropanoate]
- solubility [3]: > 5000 µg/mL

SMILES: Cc1cccc(F)c1C(=O)N1CCC[C@H](C(=O)Nc2ccc(COC(=O)CN)c(C(F)(F)F)c2)[C@@H]1c1ccc(NC2CCCC2)cc1 [Example 20, [4-[[(2R,3S)-2-[4-(cyclopentylamino)phenyl]-1-(2-fluoro-6-methyl-benzoyl)piperidine-3-carbonyl]amino]-2-(trifluoromethyl)phenyl]methyl 2-aminoacetate]
- solubility [3]: > 10000 µg/mL

SMILES: Cc1cccc(F)c1C(=O)N1CCC[C@H](C(=O)Nc2ccc(COCOP(=O)(O)O)c(C(F)(F)F)c2)[C@@H]1c1ccc(NC2CCCC2)cc1 [Example 22, [4-[[(2R,3S)-2-[4-(cyclopentylamino)phenyl]-1-(2-fluoro-6-methyl-benzoyl)piperidine-3-carbonyl]amino]-2-(trifluoromethyl)phenyl]methoxymethyl dihydrogen phosphate]
- solubility [3]: 15000 µg/mL

SMILES: Cc1cccc(F)c1C(=O)N1CCC[C@H](C(=O)Nc2ccc(COC(=O)c3cccc(CN4CCN(C)CC4)c3)c(C(F)(F)F)c2)[C@@H]1c1ccc(NC2CCCC2)cc1 [Example 23, [4-[[(2R,3S)-2-[4-(cyclopentylamino)phenyl]-1-(2-fluoro-6-methyl-benzoyl)piperidine-3-carbonyl]amino]-2-(trifluoromethyl)phenyl]methyl 3-[(4-methylpiperazin-1-yl)methyl]benzoate]
- solubility [3]: > 1000 µg/mL
